From PubChem BioAssay (NCI)
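48-hour exposure; five concentrations; linearly interpolated endpoints. GI50: concentration for 50% inhibition of growth. TGI marks complete inhibition of growth.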

Legend:
Experiment in all cases: DTP human tumour cell line panel, 48 h
786-0 renal = tested on: 786-0 renal
A498 renal = tested on: A498 renal
A549 NSCLC = tested on: A549 NSCLC
ACHN renal = tested on: ACHN renal
BT-549 breast = tested on: BT-549 breast
CAKI-1 renal = tested on: CAKI-1 renal
CCRF-CEM leukemia = tested on: CCRF-CEM leukemia
DU-145 prostate = tested on: DU-145 prostate
EKVX NSCLC = tested on: EKVX NSCLC
HCC-2998 colon = tested on: HCC-2998 colon
HCT-116 colon = tested on: HCT-116 colon
HCT-15 colon = tested on: HCT-15 colon
HL-60(TB) leukemia = tested on: HL-60(TB) leukemia
HOP-62 NSCLC = tested on: HOP-62 NSCLC
HOP-92 NSCLC = tested on: HOP-92 NSCLC
HS 578T breast = tested on: HS 578T breast
HT29 colon = tested on: HT29 colon
IGROV1 ovarian = tested on: IGROV1 ovarian
K-562 leukemia = tested on: K-562 leukemia
KM12 colon = tested on: KM12 colon
LOX IMVI melanoma = tested on: LOX IMVI melanoma
M14 melanoma = tested on: M14 melanoma
MALME-3M melanoma = tested on: MALME-3M melanoma
MDA-MB-231 breast = tested on: MDA-MB-231 breast
MOLT-4 leukemia = tested on: MOLT-4 leukemia
NCI-H226 lung = tested on: NCI-H226 lung
NCI-H23 lung = tested on: NCI-H23 lung

## CC(C)OC(=O)Nc1ccc(-c2nc(-c3cccc(OCCN4CCOCC4)c3)c(-c3ccnc(Br)c3)[nH]2)cc1
786-0 renal
  GI50: 1.24 µM
  TGI: 3.54 µM
A498 renal
  GI50: 1.23 µM
  TGI: 4.12 µM
A549 NSCLC
  GI50: 3.49 µM
  TGI: > 100 µM
ACHN renal
  GI50: 3.22 µM
  TGI: > 100 µM
BT-549 breast
  GI50: 2.86 µM
  TGI: > 100 µM
CAKI-1 renal
  GI50: 2.85 µM
  TGI: > 100 µM
CCRF-CEM leukemia
  GI50: 2.46 µM
  TGI: > 100 µM
DU-145 prostate
  GI50: 4.8 µM
  TGI: > 100 µM
EKVX NSCLC
  GI50: 2.39 µM
  TGI: 7.55 µM
HCC-2998 colon
  GI50: 3.1 µM
  TGI: > 100 µM
HCT-116 colon
  GI50: 2.96 µM
  TGI: > 100 µM
HCT-15 colon
  GI50: 1.3 µM
  TGI: 4.26 µM
HL-60(TB) leukemia
  GI50: 1.87 µM
  TGI: 4.59 µM
HOP-62 NSCLC
  GI50: 3.04 µM
  TGI: > 100 µM
HOP-92 NSCLC
  GI50: 2.45 µM
  TGI: 7.99 µM
HS 578T breast
  GI50: 0.461 µM
  TGI: 2.76 µM
HT29 colon
  GI50: 2.69 µM
  TGI: > 100 µM
IGROV1 ovarian
  GI50: 4.39 µM
  TGI: > 100 µM
K-562 leukemia
  GI50: 1.58 µM
  TGI: > 100 µM
KM12 colon
  GI50: 3.12 µM
  TGI: > 100 µM
LOX IMVI melanoma
  GI50: 1.56 µM
  TGI: 3.39 µM
M14 melanoma
  GI50: 2.78 µM
  TGI: 11.7 µM
MALME-3M melanoma
  GI50: 1.56 µM
  TGI: 3.39 µM
MDA-MB-231 breast
  GI50: 3.54 µM
  TGI: 56.7 µM
MOLT-4 leukemia
  GI50: 2.2 µM
  TGI: > 100 µM
NCI-H226 lung
  GI50: 3.75 µM
  TGI: > 100 µM
NCI-H23 lung
  GI50: 1.99 µM
